Results on 23 compounds are retold here after ChEMBL document CHEMBL1136853, “Synthesis and SAR of vinca alkaloid analogues” (Bioorg Med Chem Lett, 2009).

Some results are limits rather than exact numbers.

Assay [1] concerns HeLa. As to the kind of experiment: Cytotoxicity against human HeLa cells. It counts as functional.
Assay [2] relates to MCF7. As to the kind of experiment: Cytotoxicity against human MCF7 cells. It counts as functional.

Regarding `CC[C@]1(O)C[C@H]2CN(CCc3c([nH]c4ccc(SC)cc34)[C@@](C(=O)OC)(c3cc4c(cc3OC)N(C=O)[C@H]3[C@@](O)(C(=O)OC)[C@H](OC(C)=O)[C@]5(CC)CC=CN6CC[C@]43[C@@H]65)C2)C1`, the GI50 in assay [1] and in assay [2] was 3 nM each time.

`CC[C@]1(O)C[C@H]2CN(CCc3c([nH]c4ccc(C)cc34)[C@@](C(=O)OC)(c3cc4c(cc3OC)N(C=O)[C@H]3[C@@](O)(C(=O)OC)[C@H](OC(C)=O)[C@]5(CC)CC=CN6CC[C@]43[C@@H]65)C2)C1`: the GI50 in assay [1] worked out at 1 nM; in assay [2] it was 3 nM.

As to `CC[C@]1(O)C[C@H]2CN(CCc3c([nH]c4ccc(-c5ccccc5)cc34)[C@@](C(=O)OC)(c3cc4c(cc3OC)N(C=O)[C@H]3[C@@](O)(C(=O)OC)[C@H](OC(C)=O)[C@]5(CC)CC=CN6CC[C@]43[C@@H]65)C2)C1`, the GI50 in assay [1] is 50 nM; in assay [2] it was 35 nM.

For `C#Cc1ccc2[nH]c3c(c2c1)CN1CC(CC)=C[C@@H](C1)C[C@]3(C(=O)OC)c1cc2c(cc1OC)N(C)[C@H]1[C@@](O)(C(=O)OC)[C@H](OC(C)=O)[C@]3(CC)CC=CN4CC[C@]21[C@@H]43`, the GI50 came to 0.4 nM in assay [1] and 5 nM in assay [2].

For `CC[C@]1(O)C[C@H]2CN(CCc3c([nH]c4ccc(C#N)cc34)[C@@](C(=O)OC)(c3cc4c(cc3OC)N(C)[C@H]3[C@@](O)(C(=O)OC)[C@H](OC(C)=O)[C@]5(CC)CC=CN6CC[C@]43[C@@H]65)C2)C1`, the GI50 in assay [1] and in assay [2] was 3 nM in each case.

As for `CCSc1ccc2[nH]c3c(c2c1)CCN1C[C@H](C[C@@](O)(CC)C1)C[C@]3(C(=O)OC)c1cc2c(cc1OC)N(C)[C@H]1[C@@](O)(C(=O)OC)[C@H](OC(C)=O)[C@]3(CC)CC=CN4CC[C@]21[C@@H]43`, the 50% growth inhibitory concentration (GI50) in assay [1] was determined as 2 nM; in assay [2], 3 nM.

Turning to `CC[C@]1(O)C[C@H]2CN(CCc3c([nH]c4ccc(-c5ccccc5)cc34)[C@@](C(=O)OC)(c3cc4c(cc3OC)N(C)[C@H]3[C@@](O)(C(=O)OC)[C@H](OC(C)=O)[C@]5(CC)CC=CN6CC[C@]43[C@@H]65)C2)C1`, the GI50 in assay [1] was found to be 400 nM; in assay [2] it was 300 nM.

With `C#Cc1ccc2[nH]c3c(c2c1)CCN1C[C@H](C[C@@](O)(CC)C1)C[C@]3(C(=O)OC)c1cc2c(cc1OC)N(C)[C@H]1[C@@](O)(C(=O)OC)[C@H](OC(C)=O)[C@]3(CC)CC=CN4CC[C@]21[C@@H]43`, the GI50 in assay [1] came to 20 nM; in assay [2], 5 nM.

Turning to `CC[C@]1(O)C[C@H]2CN(CCc3c([nH]c4ccc(C(=O)OC)cc34)[C@@](C(=O)OC)(c3cc4c(cc3OC)N(C)[C@H]3[C@@](O)(C(=O)OC)[C@H](OC(C)=O)[C@]5(CC)CC=CN6CC[C@]43[C@@H]65)C2)C1`, the results for the GI50 in assay [1] and in assay [2] were 20 nM and 30 nM, respectively.

As for `CCC1=C[C@H]2CN(C1)Cc1c([nH]c3ccc(C#N)cc13)[C@@](C(=O)OC)(c1cc3c(cc1OC)N(C)[C@H]1[C@@](O)(C(=O)OC)[C@H](OC(C)=O)[C@]4(CC)CC=CN5CC[C@]31[C@@H]54)C2`, the GI50 was determined as 1 nM in assay [1] and 6 nM in assay [2].

As for `CC[C@]1(O)C[C@H]2CN(CCc3c([nH]c4ccc(C#N)cc34)[C@@](C(=O)OC)(c3cc4c(cc3OC)N(C=O)[C@H]3[C@@](O)(C(=O)OC)[C@H](OC(C)=O)[C@]5(CC)CC=CN6CC[C@]43[C@@H]65)C2)C1`, the figures for the GI50 in assay [1] and in assay [2] were 10 nM and 4 nM, respectively.

`CC[C@]1(O)C[C@H]2CN(CCc3c([nH]c4ccc(N5CCCCC5)cc34)[C@@](C(=O)OC)(c3cc4c(cc3OC)N(C)[C@H]3[C@@](O)(C(=O)OC)[C@H](OC(C)=O)[C@]5(CC)CC=CN6CC[C@]43[C@@H]65)C2)C1`: the GI50 in assay [1] was 20 nM; in assay [2] it was 30 nM.

Turning to `CC[C@]1(O)C[C@H]2CN(CCc3c([nH]c4ccc(C(=O)O)cc34)[C@@](C(=O)OC)(c3cc4c(cc3OC)N(C)[C@H]3[C@@](O)(C(=O)OC)[C@H](OC(C)=O)[C@]5(CC)CC=CN6CC[C@]43[C@@H]65)C2)C1`, the GI50 in assay [1] and in assay [2] was > 1000 nM in each case.

For the compound `CCC1=C[C@H]2CN(C1)Cc1c([nH]c3ccc(-c4cccc(F)c4)cc13)[C@@](C(=O)OC)(c1cc3c(cc1OC)N(C)[C@H]1[C@@](O)(C(=O)OC)[C@H](OC(C)=O)[C@]4(CC)CC=CN5CC[C@]31[C@@H]54)C2`, the GI50 in assay [1] and in assay [2] was > 1000 nM each time.

`CC[C@]1(O)C[C@H]2CN(CCc3c([nH]c4ccc(C(C)=O)cc34)[C@@](C(=O)OC)(c3cc4c(cc3OC)N(C)[C@H]3[C@@](O)(C(=O)OC)[C@H](OC(C)=O)[C@]5(CC)CC=CN6CC[C@]43[C@@H]65)C2)C1`: the GI50 in assay [1] was found to be 200 nM; in assay [2], 100 nM.

Turning to `CC[C@]1(O)C[C@H]2CN(CCc3c([nH]c4ccc(N)cc34)[C@@](C(=O)OC)(c3cc4c(cc3OC)N(C)[C@H]3[C@@](O)(C(=O)OC)[C@H](OC(C)=O)[C@]5(CC)CC=CN6CC[C@]43[C@@H]65)C2)C1`, the GI50 in assay [1] and in assay [2] was 200 nM in each case.

As to `CC[C@]1(O)C[C@H]2CN(CCc3c([nH]c4ccc(-c5cccc(F)c5)cc34)[C@@](C(=O)OC)(c3cc4c(cc3OC)N(C)[C@H]3[C@@](O)(C(=O)OC)[C@H](OC(C)=O)[C@]5(CC)CC=CN6CC[C@]43[C@@H]65)C2)C1`, the GI50 in assay [1] and in assay [2] was 300 nM throughout.

Regarding `CC[C@]1(O)C[C@H]2CN(CCc3c([nH]c4ccc(SCC(=O)O)cc34)[C@@](C(=O)OC)(c3cc4c(cc3OC)N(C)[C@H]3[C@@](O)(C(=O)OC)[C@H](OC(C)=O)[C@]5(CC)CC=CN6CC[C@]43[C@@H]65)C2)C1`, the GI50 in assay [1] amounted to 50 nM; in assay [2] it was 200 nM.

On to `CC[C@]1(O)C[C@H]2CN(CCc3c([nH]c4ccc(C(N)=O)cc34)[C@@](C(=O)OC)(c3cc4c(cc3OC)N(C)[C@H]3[C@@](O)(C(=O)OC)[C@H](OC(C)=O)[C@]5(CC)CC=CN6CC[C@]43[C@@H]65)C2)C1`, for which the GI50 in assay [1] and in assay [2] was > 1000 nM each time.

Turning to `CCc1ccc2[nH]c3c(c2c1)CCN1C[C@H](C[C@@](O)(CC)C1)C[C@]3(C(=O)OC)c1cc2c(cc1OC)N(C)[C@H]1[C@@](O)(C(=O)OC)[C@H](OC(C)=O)[C@]3(CC)CC=CN4CC[C@]21[C@@H]43`, the GI50 came out at 0.3 nM in assay [1] and 0.6 nM in assay [2].

With `CCc1ccc2[nH]c3c(c2c1)CCN1C[C@H](C[C@@](O)(CC)C1)C[C@]3(C(=O)OC)c1cc2c(cc1OC)N(C=O)[C@H]1[C@@](O)(C(=O)OC)[C@H](OC(C)=O)[C@]3(CC)CC=CN4CC[C@]21[C@@H]43`, the 50% growth inhibitory concentration (GI50) in assay [1] turned out to be 5 nM; in assay [2], 10 nM.

As for `CCC1=C[C@H]2CN(C1)Cc1c([nH]c3ccc(-c4ccccc4)cc13)[C@@](C(=O)OC)(c1cc3c(cc1OC)N(C)[C@H]1[C@@](O)(C(=O)OC)[C@H](OC(C)=O)[C@]4(CC)CC=CN5CC[C@]31[C@@H]54)C2`, the GI50 in assay [1] was 70 nM; in assay [2], 300 nM.

Regarding `CC[C@]1(O)C[C@H]2CN(CCc3c([nH]c4ccc(-c5nccs5)cc34)[C@@](C(=O)OC)(c3cc4c(cc3OC)N(C)[C@H]3[C@@](O)(C(=O)OC)[C@H](OC(C)=O)[C@]5(CC)CC=CN6CC[C@]43[C@@H]65)C2)C1`, the GI50 in assay [1] is 200 nM; in assay [2], 100 nM.
